Residues, ends and D or L forms follow the SMILES beside them.
Legend:
[1] = tested on: Human immunodeficiency virus 1; test: Antiviral activity against HIV1 NL4-3 harboring gp41 D36G mutant infected in human HeLa cells expressing CD4-LTR-beta-gal assessed as inhibition of viral replication after 48 hrs by MAGI assay; assay type: functional, organism-based
[2] = tested on: Human immunodeficiency virus 1; test: Binding affinity to HIV1 His-tagged N-terminal heptad repeat of envelope glycoprotein gp41 assessed as recovery of N54-drug complex after 2 hrs by LC-MS analysis; parameters: concentration or dose not given beside the values
[3] = tested on: Human immunodeficiency virus 1; test: Thermal stability of HIV1 envelope glycoprotein gp41 His-tagged N-terminal heptad repeat N54-drug complex assessed as thermal unfolding transition state by measuring molar ellipticity at 4 to 90 degC by circular dichroic spectra analysis

`CC[C@H](C)[C@H](NC(=O)[C@H](CC(C)C)NC(=O)[C@H](CCC(=O)O)NC(=O)[C@H](CCC(=O)O)NC(=O)[C@@H](NC(=O)[C@H](CC(C)C)NC(=O)[C@H](CO)NC(=O)[C@@H](NC(=O)[C@H](Cc1ccc(O)cc1)NC(C)=O)[C@@H](C)O)[C@@H](C)CC)C(=O)N[C@@H](CCCCN)C(=O)N[C@@H](CCCCN)C(=O)N[C@@H](CC(=O)O)C(=O)N[C@@H](CCC(=O)O)C(=O)N[C@@H](CCC(=O)O)C(=O)N[C@@H](CCC(N)=O)C(=O)N[C@@H](CCC(N)=O)C(=O)N[C@@H](CCCCN)C(=O)N[C@@H](CCCCN)C(=O)N[C@@H](CC(N)=O)C(=O)N[C@@H](CCC(=O)O)C(=O)N[C@@H](CCC(=O)O)C(=O)N[C@@H](CCC(=O)O)C(=O)N[C@@H](CC(C)C)C(=O)N[C@@H](CCCCN)C(=O)N[C@@H](CCCCN)C(=O)N[C@@H](CC(C)C)C(=O)N[C@@H](CCC(=O)O)C(=O)N[C@@H](CCC(=O)O)C(=O)N[C@@H](Cc1c[nH]c2ccccc12)C(=O)N[C@@H](C)C(=O)N[C@@H](CCCCN)C(=O)N[C@@H](CCCCN)C(=O)N[C@@H](Cc1c[nH]c2ccccc12)C(=O)N[C@@H](CC(N)=O)C(=O)N[C@@H](Cc1c[nH]c2ccccc12)C(=O)N[C@@H](Cc1ccccc1)C(N)=O` (Ac-YTSLIEELIKKDEEQQKKNEEELKKLEEWAKKWNWF-NH2) was tested, and the EC50 [1] was 330 nM, the Activity [2] was 1.5% and the Tm [3] was 56.5 °C.

Work on `CC[C@H](C)[C@H](NC(=O)[C@H](CC(C)C)NC(=O)[C@H](CCC(=O)O)NC(=O)[C@H](CCC(=O)O)NC(=O)[C@@H](NC(=O)[C@H](CC(C)C)NC(=O)[C@H](CO)NC(=O)[C@@H](NC(=O)[C@H](Cc1ccc(O)cc1)NC(C)=O)[C@@H](C)O)[C@@H](C)CC)C(=O)N[C@@H](CCCCN)C(=O)N[C@@H](CCCCN)C(=O)N[C@@H](CCC(=O)O)C(=O)N[C@@H](CCC(=O)O)C(=O)N[C@@H](CCC(=O)O)C(=O)N[C@@H](CCC(N)=O)C(=O)N[C@@H](CCC(N)=O)C(=O)N[C@@H](CCCCN)C(=O)N[C@@H](CCCCN)C(=O)N[C@@H](CC(N)=O)C(=O)N[C@@H](CCC(=O)O)C(=O)N[C@@H](CCC(=O)O)C(=O)N[C@@H](CCC(=O)O)C(=O)N[C@@H](CC(C)C)C(=O)N[C@@H](CCCCN)C(=O)N[C@@H](CCCCN)C(=O)N[C@@H](CC(C)C)C(=O)N[C@@H](CCC(=O)O)C(=O)N[C@@H](CCC(=O)O)C(=O)N[C@@H](Cc1c[nH]c2ccccc12)C(=O)N[C@@H](C)C(=O)N[C@@H](CCCCN)C(=O)N[C@@H](CCCCN)C(=O)N[C@@H](Cc1c[nH]c2ccccc12)C(=O)N[C@@H](CC(N)=O)C(=O)N[C@@H](Cc1c[nH]c2ccccc12)C(=O)N[C@@H](Cc1ccccc1)C(N)=O` (Ac-YTSLIEELIKKEEEQQKKNEEELKKLEEWAKKWNWF-NH2) yielded an EC50 [1] of 230 nM, an Activity [2] of 2.2% and a Tm [3] of 61 °C.

`CC[C@H](C)[C@H](NC(=O)[C@H](CC(C)C)NC(=O)[C@H](CCC(=O)O)NC(=O)[C@H](CCC(=O)O)NC(=O)[C@@H](NC(=O)[C@H](CC(C)C)NC(=O)[C@H](CO)NC(=O)[C@@H](NC(=O)[C@H](Cc1ccc(O)cc1)NC(C)=O)[C@@H](C)O)[C@@H](C)CC)C(=O)N[C@@H](CCCCN)C(=O)N[C@@H](CCCCN)C(=O)N[C@@H](Cc1ccccc1)C(=O)N[C@@H](CCC(=O)O)C(=O)N[C@@H](CCC(=O)O)C(=O)N[C@@H](CCC(N)=O)C(=O)N[C@@H](CCC(N)=O)C(=O)N[C@@H](CCCCN)C(=O)N[C@@H](CCCCN)C(=O)N[C@@H](CC(N)=O)C(=O)N[C@@H](CCC(=O)O)C(=O)N[C@@H](CCC(=O)O)C(=O)N[C@@H](CCC(=O)O)C(=O)N[C@@H](CC(C)C)C(=O)N[C@@H](CCCCN)C(=O)N[C@@H](CCCCN)C(=O)N[C@@H](CC(C)C)C(=O)N[C@@H](CCC(=O)O)C(=O)N[C@@H](CCC(=O)O)C(=O)N[C@@H](Cc1c[nH]c2ccccc12)C(=O)N[C@@H](C)C(=O)N[C@@H](CCCCN)C(=O)N[C@@H](CCCCN)C(=O)N[C@@H](Cc1c[nH]c2ccccc12)C(=O)N[C@@H](CC(N)=O)C(=O)N[C@@H](Cc1c[nH]c2ccccc12)C(=O)N[C@@H](Cc1ccccc1)C(N)=O` (Ac-YTSLIEELIKKFEEQQKKNEEELKKLEEWAKKWNWF-NH2) gave an EC50 [1] of 2.8 nM, an Activity [2] of 5.8% and a Tm [3] of 64.6 °C.

For `CC[C@H](C)[C@H](NC(=O)[C@H](CC(C)C)NC(=O)[C@H](CCC(=O)O)NC(=O)[C@H](CCC(=O)O)NC(=O)[C@@H](NC(=O)[C@H](CC(C)C)NC(=O)[C@H](CO)NC(=O)[C@@H](NC(=O)[C@H](Cc1ccc(O)cc1)NC(C)=O)[C@@H](C)O)[C@@H](C)CC)C(=O)N[C@@H](CCCCN)C(=O)N[C@@H](CCCCN)C(=O)NCC(=O)N[C@@H](CCC(=O)O)C(=O)N[C@@H](CCC(=O)O)C(=O)N[C@@H](CCC(N)=O)C(=O)N[C@@H](CCC(N)=O)C(=O)N[C@@H](CCCCN)C(=O)N[C@@H](CCCCN)C(=O)N[C@@H](CC(N)=O)C(=O)N[C@@H](CCC(=O)O)C(=O)N[C@@H](CCC(=O)O)C(=O)N[C@@H](CCC(=O)O)C(=O)N[C@@H](CC(C)C)C(=O)N[C@@H](CCCCN)C(=O)N[C@@H](CCCCN)C(=O)N[C@@H](CC(C)C)C(=O)N[C@@H](CCC(=O)O)C(=O)N[C@@H](CCC(=O)O)C(=O)N[C@@H](Cc1c[nH]c2ccccc12)C(=O)N[C@@H](C)C(=O)N[C@@H](CCCCN)C(=O)N[C@@H](CCCCN)C(=O)N[C@@H](Cc1c[nH]c2ccccc12)C(=O)N[C@@H](CC(N)=O)C(=O)N[C@@H](Cc1c[nH]c2ccccc12)C(=O)N[C@@H](Cc1ccccc1)C(N)=O` (Ac-YTSLIEELIKKGEEQQKKNEEELKKLEEWAKKWNWF-NH2), the EC50 [1] was 0.4 nM, the Activity [2] was 9.6% and the Tm [3] was 76.7 °C.

For `CC[C@H](C)[C@H](NC(=O)[C@H](CC(C)C)NC(=O)[C@H](CCC(=O)O)NC(=O)[C@H](CCC(=O)O)NC(=O)[C@@H](NC(=O)[C@H](CC(C)C)NC(=O)[C@H](CO)NC(=O)[C@@H](NC(=O)[C@H](Cc1ccc(O)cc1)NC(C)=O)[C@@H](C)O)[C@@H](C)CC)C(=O)N[C@@H](CCCCN)C(=O)N[C@@H](CCCCN)C(=O)N[C@@H](Cc1cnc[nH]1)C(=O)N[C@@H](CCC(=O)O)C(=O)N[C@@H](CCC(=O)O)C(=O)N[C@@H](CCC(N)=O)C(=O)N[C@@H](CCC(N)=O)C(=O)N[C@@H](CCCCN)C(=O)N[C@@H](CCCCN)C(=O)N[C@@H](CC(N)=O)C(=O)N[C@@H](CCC(=O)O)C(=O)N[C@@H](CCC(=O)O)C(=O)N[C@@H](CCC(=O)O)C(=O)N[C@@H](CC(C)C)C(=O)N[C@@H](CCCCN)C(=O)N[C@@H](CCCCN)C(=O)N[C@@H](CC(C)C)C(=O)N[C@@H](CCC(=O)O)C(=O)N[C@@H](CCC(=O)O)C(=O)N[C@@H](Cc1c[nH]c2ccccc12)C(=O)N[C@@H](C)C(=O)N[C@@H](CCCCN)C(=O)N[C@@H](CCCCN)C(=O)N[C@@H](Cc1c[nH]c2ccccc12)C(=O)N[C@@H](CC(N)=O)C(=O)N[C@@H](Cc1c[nH]c2ccccc12)C(=O)N[C@@H](Cc1ccccc1)C(N)=O` (Ac-YTSLIEELIKKHEEQQKKNEEELKKLEEWAKKWNWF-NH2), the EC50 [1] was 35 nM, the Activity [2] was 3.2% and the Tm [3] was 58.5 °C.

Work on `CC[C@H](C)[C@H](NC(=O)[C@H](CC(C)C)NC(=O)[C@H](CCC(=O)O)NC(=O)[C@H](CCC(=O)O)NC(=O)[C@@H](NC(=O)[C@H](CC(C)C)NC(=O)[C@H](CO)NC(=O)[C@@H](NC(=O)[C@H](Cc1ccc(O)cc1)NC(C)=O)[C@@H](C)O)[C@@H](C)CC)C(=O)N[C@@H](CCCCN)C(=O)N[C@@H](CCCCN)C(=O)N[C@H](C(=O)N[C@@H](CCC(=O)O)C(=O)N[C@@H](CCC(=O)O)C(=O)N[C@@H](CCC(N)=O)C(=O)N[C@@H](CCC(N)=O)C(=O)N[C@@H](CCCCN)C(=O)N[C@@H](CCCCN)C(=O)N[C@@H](CC(N)=O)C(=O)N[C@@H](CCC(=O)O)C(=O)N[C@@H](CCC(=O)O)C(=O)N[C@@H](CCC(=O)O)C(=O)N[C@@H](CC(C)C)C(=O)N[C@@H](CCCCN)C(=O)N[C@@H](CCCCN)C(=O)N[C@@H](CC(C)C)C(=O)N[C@@H](CCC(=O)O)C(=O)N[C@@H](CCC(=O)O)C(=O)N[C@@H](Cc1c[nH]c2ccccc12)C(=O)N[C@@H](C)C(=O)N[C@@H](CCCCN)C(=O)N[C@@H](CCCCN)C(=O)N[C@@H](Cc1c[nH]c2ccccc12)C(=O)N[C@@H](CC(N)=O)C(=O)N[C@@H](Cc1c[nH]c2ccccc12)C(=O)N[C@@H](Cc1ccccc1)C(N)=O)[C@@H](C)CC` (Ac-YTSLIEELIKKIEEQQKKNEEELKKLEEWAKKWNWF-NH2) yielded an EC50 [1] of 0.4 nM, an Activity [2] of 10.4% and a Tm [3] of 79.7 °C.

Compound `CC[C@H](C)[C@H](NC(=O)[C@H](CC(C)C)NC(=O)[C@H](CCC(=O)O)NC(=O)[C@H](CCC(=O)O)NC(=O)[C@@H](NC(=O)[C@H](CC(C)C)NC(=O)[C@H](CO)NC(=O)[C@@H](NC(=O)[C@H](Cc1ccc(O)cc1)NC(C)=O)[C@@H](C)O)[C@@H](C)CC)C(=O)N[C@@H](CCCCN)C(=O)N[C@@H](CCCCN)C(=O)N[C@@H](CCCCN)C(=O)N[C@@H](CCC(=O)O)C(=O)N[C@@H](CCC(=O)O)C(=O)N[C@@H](CCC(N)=O)C(=O)N[C@@H](CCC(N)=O)C(=O)N[C@@H](CCCCN)C(=O)N[C@@H](CCCCN)C(=O)N[C@@H](CC(N)=O)C(=O)N[C@@H](CCC(=O)O)C(=O)N[C@@H](CCC(=O)O)C(=O)N[C@@H](CCC(=O)O)C(=O)N[C@@H](CC(C)C)C(=O)N[C@@H](CCCCN)C(=O)N[C@@H](CCCCN)C(=O)N[C@@H](CC(C)C)C(=O)N[C@@H](CCC(=O)O)C(=O)N[C@@H](CCC(=O)O)C(=O)N[C@@H](Cc1c[nH]c2ccccc12)C(=O)N[C@@H](C)C(=O)N[C@@H](CCCCN)C(=O)N[C@@H](CCCCN)C(=O)N[C@@H](Cc1c[nH]c2ccccc12)C(=O)N[C@@H](CC(N)=O)C(=O)N[C@@H](Cc1c[nH]c2ccccc12)C(=O)N[C@@H](Cc1ccccc1)C(N)=O` (Ac-YTSLIEELIKKKEEQQKKNEEELKKLEEWAKKWNWF-NH2) has an EC50 [1] of 330 nM, an Activity [2] of 0.8% and a Tm [3] of 50.6 °C.

— ChEMBL document CHEMBL3390848, “Affinity selection and sequence-activity relationships of HIV-1 membrane fusion inhibitors directed at the drug-resistant variants” (Medchemcomm, 2010)
